Test results taken from publication PMC11167047 (Cell Death Discovery, 2024).

What was measured:
Assay in all cases: kinome screen (33PanQinase)
Format in all cases: biochemical
EPHA1 = target: T1, EPHA1 (Homo sapiens, UniProt P21709)
T1 construct: purchased Reaction Biology Europe GmbH (formerly ProQinase)
T1 sequence (P21709 26-976): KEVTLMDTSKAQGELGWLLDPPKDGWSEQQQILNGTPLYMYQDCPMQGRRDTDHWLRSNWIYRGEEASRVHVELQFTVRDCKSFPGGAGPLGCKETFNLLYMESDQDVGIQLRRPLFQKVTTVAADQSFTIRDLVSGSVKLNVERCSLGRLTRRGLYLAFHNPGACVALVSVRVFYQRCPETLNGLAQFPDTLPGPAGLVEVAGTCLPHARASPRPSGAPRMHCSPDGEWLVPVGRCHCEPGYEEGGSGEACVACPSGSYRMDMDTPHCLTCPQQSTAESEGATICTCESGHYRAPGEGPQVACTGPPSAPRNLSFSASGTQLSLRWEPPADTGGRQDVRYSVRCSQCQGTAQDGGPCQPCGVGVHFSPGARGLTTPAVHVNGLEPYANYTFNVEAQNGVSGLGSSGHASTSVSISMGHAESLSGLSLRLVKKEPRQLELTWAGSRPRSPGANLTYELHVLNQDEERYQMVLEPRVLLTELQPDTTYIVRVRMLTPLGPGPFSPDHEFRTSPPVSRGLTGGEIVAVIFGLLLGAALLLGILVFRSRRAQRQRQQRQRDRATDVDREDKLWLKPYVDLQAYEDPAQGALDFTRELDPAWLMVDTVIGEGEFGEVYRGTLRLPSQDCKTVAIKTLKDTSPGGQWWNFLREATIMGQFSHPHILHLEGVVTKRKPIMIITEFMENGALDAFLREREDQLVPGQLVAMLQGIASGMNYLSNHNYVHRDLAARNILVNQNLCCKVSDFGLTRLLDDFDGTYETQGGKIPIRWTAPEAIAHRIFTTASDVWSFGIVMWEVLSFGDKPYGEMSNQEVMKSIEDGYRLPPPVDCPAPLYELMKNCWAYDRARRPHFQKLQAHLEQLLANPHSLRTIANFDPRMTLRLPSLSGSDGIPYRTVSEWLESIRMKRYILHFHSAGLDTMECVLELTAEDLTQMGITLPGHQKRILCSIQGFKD
Method: (§1) The Kinome Screening was performed by Reaction Biology Europe GmbH (http://reactionbiology.com; Freiburg i. Br., Germany).

PKMzeta = target: T2, PKMzeta (Homo sapiens, UniProt Q05513)
T2 construct: PKMzeta; purchased Reaction Biology Europe GmbH (formerly ProQinase)
T2 sequence (Q05513 184-592 limits assumed): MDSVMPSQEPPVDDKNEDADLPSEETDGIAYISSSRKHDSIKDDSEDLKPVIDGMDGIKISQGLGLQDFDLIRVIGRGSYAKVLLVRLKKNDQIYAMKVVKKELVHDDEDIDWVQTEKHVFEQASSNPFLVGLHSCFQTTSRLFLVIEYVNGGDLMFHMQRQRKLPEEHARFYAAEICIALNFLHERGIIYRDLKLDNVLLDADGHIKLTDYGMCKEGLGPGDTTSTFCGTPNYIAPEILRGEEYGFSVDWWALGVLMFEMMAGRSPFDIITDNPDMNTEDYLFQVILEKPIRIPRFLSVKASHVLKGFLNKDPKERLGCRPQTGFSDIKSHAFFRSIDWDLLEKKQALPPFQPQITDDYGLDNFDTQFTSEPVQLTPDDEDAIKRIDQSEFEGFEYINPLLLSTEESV
Method: as §1

STK25 = target: T3, STK25 (Homo sapiens, UniProt O00506)
T3 construct: purchased Reaction Biology Europe GmbH (formerly ProQinase)
T3 sequence (O00506 whole entry): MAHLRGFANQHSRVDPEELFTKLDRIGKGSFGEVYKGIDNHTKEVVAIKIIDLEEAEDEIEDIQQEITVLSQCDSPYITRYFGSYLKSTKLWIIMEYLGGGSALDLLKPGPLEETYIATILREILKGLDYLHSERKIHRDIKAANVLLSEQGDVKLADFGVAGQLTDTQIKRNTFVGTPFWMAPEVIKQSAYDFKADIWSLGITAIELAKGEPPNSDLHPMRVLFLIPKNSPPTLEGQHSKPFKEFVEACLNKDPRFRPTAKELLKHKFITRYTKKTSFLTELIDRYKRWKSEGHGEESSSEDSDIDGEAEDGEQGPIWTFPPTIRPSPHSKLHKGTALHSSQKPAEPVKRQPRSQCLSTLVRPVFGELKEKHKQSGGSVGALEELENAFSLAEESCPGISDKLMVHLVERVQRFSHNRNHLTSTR
Method: as §1

CDK19/CycC = target: T4, CDK19/CycC (Homo sapiens, UniProt Q9BWU1)
T4 construct: purchased Reaction Biology Europe GmbH (formerly ProQinase)
T4 sequence (Q9BWU1 whole entry): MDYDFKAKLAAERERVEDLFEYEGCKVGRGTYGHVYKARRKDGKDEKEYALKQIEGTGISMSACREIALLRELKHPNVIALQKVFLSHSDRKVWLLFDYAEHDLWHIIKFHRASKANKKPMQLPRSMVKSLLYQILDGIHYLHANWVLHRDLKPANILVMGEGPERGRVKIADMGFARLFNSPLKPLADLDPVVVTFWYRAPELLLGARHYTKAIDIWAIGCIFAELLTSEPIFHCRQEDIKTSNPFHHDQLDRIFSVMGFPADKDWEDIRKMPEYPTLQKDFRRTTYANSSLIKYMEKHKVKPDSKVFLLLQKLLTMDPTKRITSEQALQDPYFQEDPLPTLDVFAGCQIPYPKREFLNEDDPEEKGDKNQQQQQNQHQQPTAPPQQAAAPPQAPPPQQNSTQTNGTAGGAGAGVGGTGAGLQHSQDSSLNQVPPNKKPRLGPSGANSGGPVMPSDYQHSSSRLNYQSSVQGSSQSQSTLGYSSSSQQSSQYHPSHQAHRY
T4 sequence (P24863 whole entry partner): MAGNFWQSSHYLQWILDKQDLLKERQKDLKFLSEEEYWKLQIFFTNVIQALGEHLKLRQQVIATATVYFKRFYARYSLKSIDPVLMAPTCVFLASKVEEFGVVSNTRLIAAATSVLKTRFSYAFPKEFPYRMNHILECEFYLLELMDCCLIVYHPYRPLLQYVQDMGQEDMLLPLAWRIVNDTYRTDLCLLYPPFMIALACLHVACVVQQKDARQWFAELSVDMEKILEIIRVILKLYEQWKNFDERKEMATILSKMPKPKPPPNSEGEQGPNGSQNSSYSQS
Method: as §1

RPS6KA6 = target: T5, RPS6KA6 (Homo sapiens, UniProt Q9UK32)
T5 construct: purchased Reaction Biology Europe GmbH (formerly ProQinase)
T5 sequence (Q9UK32 whole entry): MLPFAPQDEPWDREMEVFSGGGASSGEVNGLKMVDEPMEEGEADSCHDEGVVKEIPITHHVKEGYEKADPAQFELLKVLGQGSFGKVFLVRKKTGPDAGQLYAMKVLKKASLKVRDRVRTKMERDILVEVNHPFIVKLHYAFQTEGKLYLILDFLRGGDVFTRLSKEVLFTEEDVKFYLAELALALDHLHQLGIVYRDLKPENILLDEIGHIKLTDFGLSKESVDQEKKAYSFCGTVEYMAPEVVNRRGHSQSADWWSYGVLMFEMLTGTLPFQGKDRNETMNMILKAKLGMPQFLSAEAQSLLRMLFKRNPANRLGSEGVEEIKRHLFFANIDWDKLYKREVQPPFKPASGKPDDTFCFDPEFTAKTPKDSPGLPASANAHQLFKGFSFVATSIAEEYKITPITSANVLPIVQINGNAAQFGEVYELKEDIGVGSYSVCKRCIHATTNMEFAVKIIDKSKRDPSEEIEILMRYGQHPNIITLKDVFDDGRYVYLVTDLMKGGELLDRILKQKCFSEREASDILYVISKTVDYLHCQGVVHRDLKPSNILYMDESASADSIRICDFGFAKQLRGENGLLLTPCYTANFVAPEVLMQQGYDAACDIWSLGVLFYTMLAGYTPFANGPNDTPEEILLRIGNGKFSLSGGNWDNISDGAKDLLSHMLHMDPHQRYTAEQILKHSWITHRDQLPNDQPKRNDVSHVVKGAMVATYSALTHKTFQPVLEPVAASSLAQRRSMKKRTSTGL
Method: as §1

CDK3/CycE1 = target: T6, CDK3/CycE1 (Homo sapiens, UniProt Q00526)
T6 construct: purchased Reaction Biology Europe GmbH (formerly ProQinase)
Method: as §1

AKT3 = target: T7, AKT3 (Homo sapiens, UniProt Q9Y243)
T7 construct: purchased Reaction Biology Europe GmbH (formerly ProQinase)
Method: as §1

MARK1 = target: T8, MARK1 (Homo sapiens, UniProt Q9P0L2)
T8 construct: purchased Reaction Biology Europe GmbH (formerly ProQinase)
T8 sequence (Q9P0L2 whole entry): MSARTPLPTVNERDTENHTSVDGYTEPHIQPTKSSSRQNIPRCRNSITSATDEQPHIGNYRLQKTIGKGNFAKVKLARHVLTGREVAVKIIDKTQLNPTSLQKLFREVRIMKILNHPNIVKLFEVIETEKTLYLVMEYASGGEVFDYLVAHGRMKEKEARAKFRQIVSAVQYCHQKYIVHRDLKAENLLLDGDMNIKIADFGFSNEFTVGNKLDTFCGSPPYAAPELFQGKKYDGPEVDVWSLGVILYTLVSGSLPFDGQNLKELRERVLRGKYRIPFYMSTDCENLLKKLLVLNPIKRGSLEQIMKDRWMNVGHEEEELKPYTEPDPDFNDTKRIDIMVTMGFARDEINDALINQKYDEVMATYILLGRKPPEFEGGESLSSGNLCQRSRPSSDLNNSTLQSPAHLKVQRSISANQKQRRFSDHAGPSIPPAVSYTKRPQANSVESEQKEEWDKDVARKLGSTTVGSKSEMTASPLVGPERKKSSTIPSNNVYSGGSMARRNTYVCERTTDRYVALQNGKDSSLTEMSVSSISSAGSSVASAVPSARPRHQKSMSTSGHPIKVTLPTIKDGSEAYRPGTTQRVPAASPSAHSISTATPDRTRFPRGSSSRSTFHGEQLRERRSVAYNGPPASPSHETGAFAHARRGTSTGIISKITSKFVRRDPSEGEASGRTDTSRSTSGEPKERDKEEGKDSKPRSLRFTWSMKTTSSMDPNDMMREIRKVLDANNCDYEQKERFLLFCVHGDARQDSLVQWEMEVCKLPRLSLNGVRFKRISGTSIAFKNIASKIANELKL
Method: as §1

SLK = target: T9, SLK (Homo sapiens, UniProt Q9H2G2)
T9 construct: purchased Reaction Biology Europe GmbH (formerly ProQinase)
Method: as §1

ROCK1 = target: T10, ROCK1 (Homo sapiens, UniProt Q13464)
T10 construct: purchased Reaction Biology Europe GmbH (formerly ProQinase)
T10 sequence (Q13464 whole entry): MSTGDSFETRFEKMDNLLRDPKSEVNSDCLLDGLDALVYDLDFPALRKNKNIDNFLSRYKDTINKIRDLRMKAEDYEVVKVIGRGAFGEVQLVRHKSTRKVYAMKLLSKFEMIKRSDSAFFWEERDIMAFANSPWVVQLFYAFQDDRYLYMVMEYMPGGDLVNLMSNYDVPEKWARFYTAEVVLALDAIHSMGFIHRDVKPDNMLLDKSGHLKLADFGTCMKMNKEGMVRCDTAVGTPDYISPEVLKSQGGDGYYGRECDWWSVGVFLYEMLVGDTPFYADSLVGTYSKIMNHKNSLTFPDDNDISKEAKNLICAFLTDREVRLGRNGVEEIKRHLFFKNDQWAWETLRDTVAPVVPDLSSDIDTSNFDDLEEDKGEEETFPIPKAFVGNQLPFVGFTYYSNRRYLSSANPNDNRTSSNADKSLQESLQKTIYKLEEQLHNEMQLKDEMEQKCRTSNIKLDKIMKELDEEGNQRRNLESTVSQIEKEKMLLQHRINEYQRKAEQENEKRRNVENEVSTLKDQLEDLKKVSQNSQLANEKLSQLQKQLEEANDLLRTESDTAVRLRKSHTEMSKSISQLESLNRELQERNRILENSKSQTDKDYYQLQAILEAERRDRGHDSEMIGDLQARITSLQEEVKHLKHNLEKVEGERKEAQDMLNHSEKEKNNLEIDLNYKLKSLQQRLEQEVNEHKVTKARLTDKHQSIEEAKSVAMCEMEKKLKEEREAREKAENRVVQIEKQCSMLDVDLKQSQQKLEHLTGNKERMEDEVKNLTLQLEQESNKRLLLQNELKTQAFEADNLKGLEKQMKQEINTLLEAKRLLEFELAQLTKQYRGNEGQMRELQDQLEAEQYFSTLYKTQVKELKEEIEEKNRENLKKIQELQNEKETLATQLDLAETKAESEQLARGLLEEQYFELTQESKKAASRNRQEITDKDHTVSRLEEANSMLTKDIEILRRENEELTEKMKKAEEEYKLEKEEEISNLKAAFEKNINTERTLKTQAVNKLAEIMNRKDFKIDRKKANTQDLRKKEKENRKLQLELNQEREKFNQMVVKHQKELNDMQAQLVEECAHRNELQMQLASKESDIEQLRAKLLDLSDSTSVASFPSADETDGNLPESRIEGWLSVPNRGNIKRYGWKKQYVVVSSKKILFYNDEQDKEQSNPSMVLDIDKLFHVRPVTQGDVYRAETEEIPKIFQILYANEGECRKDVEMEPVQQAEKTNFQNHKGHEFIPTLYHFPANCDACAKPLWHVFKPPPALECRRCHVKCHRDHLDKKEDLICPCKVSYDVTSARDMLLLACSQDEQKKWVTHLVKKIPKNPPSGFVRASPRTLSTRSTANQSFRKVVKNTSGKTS
Method: as §1

CDK4/CycD3 = target: T11, CDK4/CycD3 (Homo sapiens, UniProt P11802)
T11 construct: purchased Reaction Biology Europe GmbH (formerly ProQinase)
T11 sequence (P11802 whole entry): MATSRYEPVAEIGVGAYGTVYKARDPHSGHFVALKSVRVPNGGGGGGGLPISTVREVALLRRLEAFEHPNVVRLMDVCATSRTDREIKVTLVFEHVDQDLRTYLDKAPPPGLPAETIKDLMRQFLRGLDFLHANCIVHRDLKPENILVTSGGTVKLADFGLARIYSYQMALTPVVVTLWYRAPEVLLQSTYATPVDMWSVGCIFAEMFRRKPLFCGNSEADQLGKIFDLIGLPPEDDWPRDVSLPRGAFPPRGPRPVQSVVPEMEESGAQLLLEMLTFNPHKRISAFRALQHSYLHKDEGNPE
T11 sequence (P30281 whole entry partner): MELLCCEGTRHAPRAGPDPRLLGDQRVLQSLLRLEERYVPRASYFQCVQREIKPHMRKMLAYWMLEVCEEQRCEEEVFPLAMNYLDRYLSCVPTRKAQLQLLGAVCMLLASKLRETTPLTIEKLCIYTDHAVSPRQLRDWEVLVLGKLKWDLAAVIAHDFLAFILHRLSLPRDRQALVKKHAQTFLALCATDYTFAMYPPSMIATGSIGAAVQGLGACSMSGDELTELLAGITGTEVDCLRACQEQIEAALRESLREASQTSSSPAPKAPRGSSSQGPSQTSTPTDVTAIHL
Method: as §1

STK33 = target: T12, STK33 (Homo sapiens, UniProt Q9BYT3)
T12 construct: purchased Reaction Biology Europe GmbH (formerly ProQinase)
Method: as §1

TSK2 = target: T13, TSK2 (Homo sapiens, UniProt Q96PF2)
T13 construct: purchased Reaction Biology Europe GmbH (formerly ProQinase)
T13 sequence (Q96PF2 1-358): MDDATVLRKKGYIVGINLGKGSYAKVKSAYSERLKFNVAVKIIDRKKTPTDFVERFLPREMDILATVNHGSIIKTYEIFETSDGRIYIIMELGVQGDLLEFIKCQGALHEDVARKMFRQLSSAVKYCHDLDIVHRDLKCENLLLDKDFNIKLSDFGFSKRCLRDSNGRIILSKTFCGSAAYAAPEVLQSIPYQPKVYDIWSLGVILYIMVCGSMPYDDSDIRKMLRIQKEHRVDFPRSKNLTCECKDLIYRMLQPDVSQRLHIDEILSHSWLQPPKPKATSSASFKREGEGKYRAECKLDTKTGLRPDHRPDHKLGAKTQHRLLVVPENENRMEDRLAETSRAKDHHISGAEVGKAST
Method: as §1

CAMK2G = target: T14, CAMK2G (Homo sapiens, UniProt Q13555)
T14 construct: purchased Reaction Biology Europe GmbH (formerly ProQinase)
Method: as §1

Compound	residual kinase activity (EPHA1; 0.3 µM)	residual kinase activity (PKMzeta; 0.3 µM)	residual kinase activity (STK25; 0.3 µM)	residual kinase activity (CDK19/CycC; 0.3 µM)	residual kinase activity (RPS6KA6; 0.3 µM)	residual kinase activity (CDK3/CycE1; 0.3 µM)	residual kinase activity (AKT3; 0.3 µM)	residual kinase activity (MARK1; 0.3 µM)	residual kinase activity (SLK; 0.3 µM)	residual kinase activity (ROCK1; 0.3 µM)	residual kinase activity (CDK4/CycD3; 0.3 µM)	residual kinase activity (STK33; 0.3 µM)	residual kinase activity (TSK2; 0.3 µM)	residual kinase activity (CAMK2G; 0.3 µM)	other results
COc1ccnc2[nH]cc(-c3cc(N)nc(N)c3)c12 [meriolin 16]	116 % of control	90 % of control	81 % of control	2 % of control	48 % of control	5 % of control	82 % of control	101 % of control	77 % of control	2 % of control	51 % of control	43 % of control	92 % of control	82 % of control	residual kinase activity (EPHA1; 0.03 µM): 128 % of control; residual kinase activity (PKMzeta; 0.03 µM): 97 % of control; residual kinase activity (STK25; 0.03 µM): 99 % of control; residual kinase activity (CDK19/CycC; 0.03 µM): 6 % of control; residual kinase activity (RPS6KA6; 0.03 µM): 84 % of control; residual kinase activity (CDK3/CycE1; 0.03 µM): 36 % of control; residual kinase activity (AKT3; 0.03 µM): 108 % of control; residual kinase activity (MARK1; 0.03 µM): 121 % of control; residual kinase activity (SLK; 0.03 µM): 83 % of control; residual kinase activity (ROCK1; 0.03 µM): 24 % of control; residual kinase activity (CDK4/CycD3; 0.03 µM): 95 % of control; residual kinase activity (STK33; 0.03 µM): 73 % of control; residual kinase activity (TSK2; 0.03 µM): 107 % of control; residual kinase activity (CAMK2G; 0.03 µM): 94 % of control
c1ccc(CNc2cc(-c3c[nH]c4ncccc34)ccn2)cc1 [meriolin 36]	127 % of control	89 % of control	33 % of control	3 % of control	13 % of control	1 % of control	93 % of control	90 % of control	4 % of control	1 % of control	34 % of control	41 % of control	103 % of control	34 % of control	residual kinase activity (EPHA1; 3 µM): 126 % of control; residual kinase activity (PKMzeta; 3 µM): 68 % of control; residual kinase activity (STK25; 3 µM): 6 % of control; residual kinase activity (CDK19/CycC; 3 µM): 0 % of control; residual kinase activity (RPS6KA6; 3 µM): 3 % of control; residual kinase activity (CDK3/CycE1; 3 µM): -1 % of control; residual kinase activity (AKT3; 3 µM): 42 % of control; residual kinase activity (MARK1; 3 µM): 43 % of control; residual kinase activity (SLK; 3 µM): 1 % of control; residual kinase activity (ROCK1; 3 µM): 1 % of control; residual kinase activity (CDK4/CycD3; 3 µM): 6 % of control; residual kinase activity (STK33; 3 µM): 14 % of control; residual kinase activity (TSK2; 3 µM): 94 % of control; residual kinase activity (CAMK2G; 3 µM): 6 % of control
